# Patent publication US7781565B2 (priority 2006, dated 2010)
# Entries after “also recorded” stand apart in the source; their conditions may differ.
# Tested on: NCI-60 cell lines
# Assay type: cell-based, human
Substance,Cell Line (NCI-60 cell line the peptide and its motif are associated with),Cell Line the peptide is associated with (peptide recovered from phage library selection on this NCI-60 cell line),Cell Line with which the peptide (and its tripeptide motif) is associated,Cell Line (NCI-60 cell line the peptide is associated with)
DLRLSFP,UACC 257 Melanoma,–,–,–
DELGSVQ,–,TK-10 Renal,–,–
GVLTIGA,–,BT-549 Breast,–,–
NCYSLRS,OVCAR-4 Ovarian,–,–,–
RANGVLV,–,–,H23-Lung,–
VARAVPC,–,–,Hop-92-Lung,–
SSRPGSS,–,–,Hop-62-Lung,–
CGARGAA,–,–,H322-Lung,–
RRLSSIA,–,TK-10 Renal,–,–
QRAAVIV,–,–,–,SNB-19 CNS; also recorded: SF-539 CNS
SRYSLRS,–,–,A549-Lung,–
TGRVVRR,–,–,CCRF-CEM Leukemia,–
HVGLLRA,–,–,Hop-62-Lung,–
SRGSTAG,–,–,H322-Lung,–
LGLRAFV,–,–,H322-Lung,–
VMDRGVA,UACC 257 Melanoma,–,–,–
GGRSSHP,–,–,Molt-4-Leukemia,–
QVLLRSF,–,–,Hop-62-Lung,–
VVASLPH,–,–,–,HT-29 Colon
RGSYVER,–,BT-549 Breast,–,–
GLGALRW,–,NCI/ADR-RES Breast,–,–
GRLAKSI,UACC 257 Melanoma,–,–,–
GSGGSVH,–,–,Hop-92-Lung,–

Substance,Cell Line (NCI-60 cell line the peptide and its motif are associated with),Cell Line the peptide is associated with (peptide recovered from phage library selection on this NCI-60 cell line),Cell Line with which the peptide (and its tripeptide motif) is associated,Cell Line (NCI-60 cell line the peptide is associated with)
RLSWTVL,PC3 Prostate,–,–,–
RTWGGRM,M14 Melanoma,–,–,–
LFHTRSS,IGROV1 Ovarian,–,–,–
LRSSMML,–,–,–,MALME-3M Melanoma
LVSTRWA,–,RXF393 Renal,–,–
AGDSRLS,–,–,–,HCT-15 Colon
FGVSGGS,–,MDA-MB-231 Breast,–,–
EADPGAV,UACC 257 Melanoma,–,–,–
GLRVYEP,PC3 Prostate,–,–,–
LGGLGLY,DU-145 Prostate,–,–,–
ARGNVRF,–,MDA-MB-231 Breast,–,–
LVRVSGR,–,–,HL-60-Leukemia,–
PYRRGSC,–,MDA-MB-231 Breast,–,–
NRSSGRR,–,–,SR Leukemia,–
NWDARGR,M14 Melanoma,–,–,–
GGLPVQM,PC3 Prostate,–,–,–
WFSWLVS,–,–,H460-Lung,–
ADLGAGW,OVCAR-4 Ovarian,–,–,–
SLRSGIV,–,–,EKVX-Lung,–
FGSSNRS,–,–,–,SF-268 CNS
GGVRIAA,–,–,–,HCT-116 Colon
DWVGVLM,UACC62 Melanoma,–,–,–
EVIGSGI,–,–,A549-Lung,–

Substance,Cell Line (NCI-60 cell line the peptide and its motif are associated with),Cell Line the peptide is associated with (peptide recovered from phage library selection on this NCI-60 cell line),Cell Line with which the peptide (and its tripeptide motif) is associated,Cell Line (NCI-60 cell line the peptide is associated with)
DTLASLR,–,–,–,HT-29 Colon
DEGGSRW,IGROV1 Ovarian,–,–,–
NRAVLSA,SK-OV-3-3 Ovarian,–,–,–
SSGSSNG,–,–,K-562-Leukemia,–
GRLYYYR,–,–,RPMI-8226-Leukemia,–
GLVASMP,IGROV1 Ovarian,–,–,–
RFSGGLQ,SK-MEL-28 Melanoma,–,–,–
LRSMAVM,–,ACHN Renal,–,–
SWAGVRF,OVCAR-5 Ovarian,–,–,–
NRSSHCG,M14 Melanoma,–,–,–
RDLRVHL,UACC62 Melanoma,–,–,–
NKGGLRQ,SK-OV-3-3 Ovarian,–,–,–
TRLGGLT,–,–,–,SF-295 CNS
LIGGVLH,IGROV1 Ovarian,–,–,–
NNVGGSS,OVCAR-4 Ovarian,–,–,–
SLRGVRV,UACC62 Melanoma,–,–,–
VLRSGEL,–,–,–,SF-295 CNS
LVRLVSL,IGROV1 Ovarian,–,–,–
VARSSFR,IGROV1 Ovarian,–,–,–
WVGSSKF,–,–,A549-Lung,–
GGLSPHR,–,–,H460-Lung,–
AGRPRAT,–,–,–,HCT-116 Colon
ALAGGGL,–,–,–,SNB-75 CNS

Substance,Cell Line (NCI-60 cell line the peptide and its motif are associated with),Cell Line the peptide is associated with (peptide recovered from phage library selection on this NCI-60 cell line),Cell Line with which the peptide (and its tripeptide motif) is associated,Cell Line (NCI-60 cell line the peptide is associated with)
GGRSKKV,–,–,–,SF-268 CNS
GDLRVSV,–,UO31 Renal,–,–
GAVLTSC,–,BT-549 Breast,–,–
PNRRVSA,–,–,Hop-92-Lung,–
HGGSNDR,–,A498 Renal,–,–
PRLSWVL,–,–,–,HT-29 Colon
RGVSLKG,–,–,H226-Lung,–
WGSVAGI,–,–,–,SNB-75 CNS
RDGRGAG,–,–,–,SF-295 CNS
VIVRGSL,–,UO31 Renal,–,–
GGLVKRL,SK-MEL-2 Melanoma,–,–,–
RIGRVWA,–,–,Molt-4-Leukemia,–
GVIGRGS,UACC62 Melanoma,–,–,–
YGALAGL,PC3 Prostate,–,–,–
RGSPLTK,UACC 257 Melanoma,–,–,–
SGLVAMV,–,–,–,SW620-Colon
PRVSALV,–,MDA-MB-231 Breast,–,–
FWISRAS,–,–,RPMI-8226-Leukemia,–
LAIRGLG,–,–,–,SW620-Colon
GRWTGSS,–,MCF-7 Breast,–,–
GSSRQFV,–,–,A549-Lung,–
VRGGLTG,–,–,–,HT-29 Colon
RQKCGGL,–,–,–,HT-29 Colon

Substance,Cell Line (NCI-60 cell line the peptide and its motif are associated with),Cell Line the peptide is associated with (peptide recovered from phage library selection on this NCI-60 cell line),Cell Line with which the peptide (and its tripeptide motif) is associated,Cell Line (NCI-60 cell line the peptide is associated with)
EGSVDAH,–,–,–,SW620-Colon
WARAGGF,–,–,–,SNB-19 CNS; also recorded: SF-539 CNS
LGGRTIS,DU-145 Prostate,–,–,–
ASGRVAN,–,–,–,HCT-116 Colon
AAGRSRI,M14 Melanoma,–,–,–
ARHGSSV,M14 Melanoma,–,–,–
SRFRVSI,–,–,CCRF-CEM Leukemia,–
RGSRLPA,–,–,EKVX-Lung,–
FHVAGGS,–,–,SR Leukemia,–
PVHSAGG,–,–,H460-Lung,–
GRGSGGF,–,–,–,LOX-IMVI Melanoma
GEGSGSA,–,MDA-MB-435-Breast,–,–
VGVRFSR,SK-MEL-28 Melanoma,–,–,–
AGIARGG,–,–,Hop-92-Lung,–
RGSRTGP,–,–,–,U251 CNS
DVETRGS,–,–,CCRF-CEM Leukemia,–
RAGSRYI,SK-MEL-28 Melanoma,–,–,–
QKPGAVG,–,T-47D Breast,–,–
AASSWAV,M14 Melanoma,–,–,–
DGGGRVG,–,CAIK-1 Renal,–,–
TRGAVFG,SK-MEL-5 Melanoma,–,–,–
DLGLRPV,–,–,Molt-4-Leukemia,–
NAASLPS,–,–,SR Leukemia,–

Substance,Cell Line (NCI-60 cell line the peptide and its motif are associated with),Cell Line the peptide is associated with (peptide recovered from phage library selection on this NCI-60 cell line),Cell Line with which the peptide (and its tripeptide motif) is associated,Cell Line (NCI-60 cell line the peptide is associated with)
GDRRLVS,–,NCI/ADR-RES Breast,–,–
ARGVAEY,–,–,–,SF-295 CNS
ALNRGSR,–,MDA-MB-231 Breast,–,–
RVSSDPI,SK-OV-3-3 Ovarian,–,–,–
GAGGGVG,–,MDA-MB-435-Breast,–,–
RYRVSVY,–,–,–,KM-12C Colon
LAGLVSG,–,–,–,HT-29 Colon
LGLVHWV,–,MDA-MB-231 Breast,–,–
AGRSCNL,–,–,–,HCT-116 Colon
AAVWQMK,–,–,–,SNB-19 CNS; also recorded: SF-539 CNS
EGLVSVV,–,–,Molt-4-Leukemia,–
FGGSGRG,–,–,–,LOX-IMVI Melanoma
GGRRVVV,–,NCI/ADR-RES Breast,–,–
RAVERVA,–,CAIK-1 Renal,–,–
SAGSHPA,–,SN12C Renal,–,–
WGWRASS,–,–,A549-Lung,–
RDGRAVR,–,–,–,KM-12C Colon
GSVLGDY,–,–,–,COLO-205-Colon
RAVGRVA,–,–,HL-60-Leukemia,–
